The values below come from paper PMC11730311 (Scientific Reports, 2025).

Starred links: 1 amine or outer side, 2 acyl side, 3 side chain; linkers in the order of their positions; H or OH if unused. Residues, ends and D or L forms follow the SMILES beside them. Groups on a side chain read outwards from the residue. No end group written: not given here. *: point of attachment. C20 diacid = O=C(O)CCCCCCCCCCCCCCCCCCC(=O)*; γGlu = O=C(O)[C@H](CCC(=O)[*:2])N[*:1]

Data set [1] in a line: Pharmacokinetic pilot study, plasma exposure after IV dosing. In kind it is in vivo, mouse. As to conditions: for half-life: male, NMRI, mouse, plasma, iv, 700 nmol/kg.
The target of data set [2] is human calcitonin gene-related peptide receptor (hCGRP-R) (Homo sapiens, UniProt O60894+Q16602). The data set is described as follows: cell-based.
human calcitonin gene-related peptide receptor (hCGRP-R), sequence (Q16602 23-461): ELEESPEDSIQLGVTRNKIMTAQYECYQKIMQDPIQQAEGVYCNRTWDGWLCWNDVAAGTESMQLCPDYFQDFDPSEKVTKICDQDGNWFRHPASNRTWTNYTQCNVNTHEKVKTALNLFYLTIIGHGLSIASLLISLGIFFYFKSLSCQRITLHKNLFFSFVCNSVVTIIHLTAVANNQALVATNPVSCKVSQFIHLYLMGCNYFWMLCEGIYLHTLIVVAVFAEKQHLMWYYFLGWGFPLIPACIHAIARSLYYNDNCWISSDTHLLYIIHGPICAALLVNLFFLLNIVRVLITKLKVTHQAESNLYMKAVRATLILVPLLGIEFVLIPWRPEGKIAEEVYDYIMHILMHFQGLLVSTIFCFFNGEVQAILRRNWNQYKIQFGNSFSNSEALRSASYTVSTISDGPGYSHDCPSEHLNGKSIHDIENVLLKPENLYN
human calcitonin gene-related peptide receptor (hCGRP-R), sequence (O60894 27-148): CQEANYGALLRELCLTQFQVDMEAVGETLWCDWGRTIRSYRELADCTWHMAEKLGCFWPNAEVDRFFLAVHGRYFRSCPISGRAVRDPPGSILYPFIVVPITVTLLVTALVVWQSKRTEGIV

Usually half-life stands for the time in which the quantity being followed falls by half. Turning to `CC(C)C[C@H](NC(=O)CNC(=O)[C@H](C)NC(=O)[C@H](CC(C)C)NC(=O)[C@H](CCCNC(=N)N)NC(=O)[C@H](Cc1c[nH]cn1)NC(=O)[C@@H](NC(=O)[C@@H](N)C(C)C)[C@@H](C)O)C(=O)N[C@@H](CC(C)C)C(=O)N[C@@H](CO)C(=O)N[C@@H](CCCNC(=N)N)C(=O)N[C@@H](CCCCNC(=O)CC[C@H](NC(=O)CCCCCCCCCCCCCCCCCCC(=O)O)C(=O)O)C(=O)NCC(=O)NCC(=O)N[C@H](C(=O)N[C@H](C(=O)N[C@@H](CCCCN)C(=O)N[C@@H](CC(N)=O)C(=O)N[C@@H](CC(N)=O)C(=O)N[C@@H](Cc1ccccc1)C(=O)N[C@H](C(=O)N1CCC[C@H]1C(=O)N[C@H](C(=O)N[C@@H](CC(N)=O)C(=O)N[C@H](C(=O)NCC(=O)N[C@@H](CO)C(=O)N[C@@H](CCCCN)C(=O)N[C@@H](C)C(=O)N[C@@H](Cc1ccccc1)C(N)=O)C(C)C)[C@@H](C)O)C(C)C)C(C)C)C(C)C` [S19K-C20DA-γGlu] (H-VTHRLAGLLSRK([γGlu-C20 diacid])GGVVKNNFVPTNVGSKAF-NH2), in data set [1] (male NMRI mice, IV), the “difference in half-life versus hαCGRP8-37N25K-C20DA-γGlu” value is ~ 6 h. This molecule gave a half-life in data set [1] of 13.7 h. With `CC(C)C[C@H](NC(=O)CNC(=O)[C@H](C)NC(=O)[C@H](CC(C)C)NC(=O)[C@H](CCCNC(=N)N)NC(=O)[C@H](Cc1c[nH]cn1)NC(=O)[C@@H](NC(=O)[C@@H](N)C(C)C)[C@@H](C)O)C(=O)N[C@@H](CC(C)C)C(=O)N[C@@H](CCCCNC(=O)CC[C@H](NC(=O)CCCCCCCCCCCCCCCCCCC(=O)O)C(=O)O)C(=O)N[C@@H](CCCNC(=N)N)C(=O)N[C@@H](CO)C(=O)NCC(=O)NCC(=O)N[C@H](C(=O)N[C@H](C(=O)N[C@@H](CCCCN)C(=O)N[C@@H](CC(N)=O)C(=O)N[C@@H](CC(N)=O)C(=O)N[C@@H](Cc1ccccc1)C(=O)N[C@H](C(=O)N1CCC[C@H]1C(=O)N[C@H](C(=O)N[C@@H](CC(N)=O)C(=O)N[C@H](C(=O)NCC(=O)N[C@@H](CO)C(=O)N[C@@H](CCCCN)C(=O)N[C@@H](C)C(=O)N[C@@H](Cc1ccccc1)C(N)=O)C(C)C)[C@@H](C)O)C(C)C)C(C)C)C(C)C` [S17K-C20DA-γGlu] (H-VTHRLAGLLK([γGlu-C20 diacid])RSGGVVKNNFVPTNVGSKAF-NH2), the half-life in data set [1] was 12.3 h. On to “VTHRLAGLLSRSGGVVKNNFVPTNVGSKSF-NH2 [hαCGRP8-37A36S]”, for which, in data set [2], the Kb was 1.66 nM. Regarding `CC(C)C[C@H](NC(=O)CNC(=O)[C@H](C)NC(=O)[C@H](CC(C)C)NC(=O)[C@H](CCCNC(=N)N)NC(=O)[C@H](Cc1c[nH]cn1)NC(=O)[C@@H](NC(=O)[C@@H](N)C(C)C)[C@@H](C)O)C(=O)N[C@@H](CC(C)C)C(=O)N[C@@H](CO)C(=O)N[C@@H](CCCNC(=N)N)C(=O)N[C@@H](CO)C(=O)N[C@@H](CCCCNC(=O)CC[C@H](NC(=O)CCCCCCCCCCCCCCCCCCC(=O)O)C(=O)O)C(=O)NCC(=O)N[C@H](C(=O)N[C@H](C(=O)N[C@@H](CCCCN)C(=O)N[C@@H](CC(N)=O)C(=O)N[C@@H](CC(N)=O)C(=O)N[C@@H](Cc1ccccc1)C(=O)N[C@H](C(=O)N1CCC[C@H]1C(=O)N[C@H](C(=O)N[C@@H](CC(N)=O)C(=O)N[C@H](C(=O)NCC(=O)N[C@@H](CO)C(=O)N[C@@H](CCCCN)C(=O)N[C@@H](C)C(=O)N[C@@H](Cc1ccccc1)C(N)=O)C(C)C)[C@@H](C)O)C(C)C)C(C)C)C(C)C` [G20K-C20DA-γGlu] (H-VTHRLAGLLSRSK([γGlu-C20 diacid])GVVKNNFVPTNVGSKAF-NH2), the half-life in data set [1] was 7.5 h. The same measure, in the same setting: as for `CC(C)C[C@H](NC(=O)[C@H](CCCNC(=N)N)NC(=O)[C@H](Cc1c[nH]cn1)NC(=O)[C@@H](NC(=O)[C@@H](N)C(C)C)[C@@H](C)O)C(=O)N[C@@H](C)C(=O)N[C@@H](CCCCNC(=O)CC[C@H](NC(=O)CCCCCCCCCCCCCCCCCCC(=O)O)C(=O)O)C(=O)N[C@@H](CC(C)C)C(=O)N[C@@H](CC(C)C)C(=O)N[C@@H](CO)C(=O)N[C@@H](CCCNC(=N)N)C(=O)N[C@@H](CO)C(=O)NCC(=O)NCC(=O)N[C@H](C(=O)N[C@H](C(=O)N[C@@H](CCCCN)C(=O)N[C@@H](CC(N)=O)C(=O)N[C@@H](CC(N)=O)C(=O)N[C@@H](Cc1ccccc1)C(=O)N[C@H](C(=O)N1CCC[C@H]1C(=O)N[C@H](C(=O)N[C@@H](CC(N)=O)C(=O)N[C@H](C(=O)NCC(=O)N[C@@H](CO)C(=O)N[C@@H](CCCCN)C(=O)N[C@@H](C)C(=O)N[C@@H](Cc1ccccc1)C(N)=O)C(C)C)[C@@H](C)O)C(C)C)C(C)C)C(C)C` [G14K-C20DA-γGlu] (H-VTHRLAK([γGlu-C20 diacid])LLSRSGGVVKNNFVPTNVGSKAF-NH2), the figure is 10.1 h.

As to `CC(C)C[C@H](NC(=O)CNC(=O)[C@H](C)NC(=O)[C@H](CC(C)C)NC(=O)[C@H](CCCNC(=N)N)NC(=O)[C@H](Cc1c[nH]cn1)NC(=O)[C@@H](NC(=O)[C@@H](N)C(C)C)[C@@H](C)O)C(=O)N[C@@H](CC(C)C)C(=O)N[C@@H](CO)C(=O)N[C@@H](CCCNC(=N)N)C(=O)N[C@@H](CO)C(=O)NCC(=O)NCC(=O)N[C@H](C(=O)N[C@H](C(=O)N[C@@H](CCCCN)C(=O)N[C@@H](CCCCNC(=O)CC[C@H](NC(=O)CCCCCCCCCCCCCCCCCCC(=O)O)C(=O)O)C(=O)N[C@@H](CC(N)=O)C(=O)N[C@@H](Cc1ccccc1)C(=O)N[C@H](C(=O)N1CCC[C@H]1C(=O)N[C@H](C(=O)N[C@@H](CC(N)=O)C(=O)N[C@H](C(=O)NCC(=O)N[C@@H](CO)C(=O)N[C@@H](CCCCN)C(=O)N[C@@H](C)C(=O)N[C@@H](Cc1ccccc1)C(N)=O)C(C)C)[C@@H](C)O)C(C)C)C(C)C)C(C)C` [hαCGRP8-37N25K-C20DA-γGlu], the half-life in data set [1] is 7.3 h. In addition, the Kb in data set [2] is 4.68 nM.

Take `CC(C)C[C@H](NC(=O)CNC(=O)[C@H](C)NC(=O)[C@H](CC(C)C)NC(=O)[C@H](CCCNC(=N)N)NC(=O)[C@H](Cc1c[nH]cn1)NC(=O)[C@@H](NC(=O)[C@@H](N)C(C)C)[C@@H](C)O)C(=O)N[C@@H](CC(C)C)C(=O)N[C@@H](CO)C(=O)N[C@@H](CCCNC(=N)N)C(=O)N[C@@H](CO)C(=O)NCC(=O)NCC(=O)N[C@H](C(=O)N[C@H](C(=O)N[C@@H](CCCCN)C(=O)N[C@@H](CCCCNC(=O)CC[C@H](NC(=O)CCCCCCCCCCCCCCCCCCC(=O)O)C(=O)O)C(=O)N[C@@H](CC(N)=O)C(=O)N[C@@H](Cc1ccccc1)C(=O)N[C@H](C(=O)N1CCC[C@H]1C(=O)N[C@H](C(=O)N[C@@H](CC(N)=O)C(=O)N[C@H](C(=O)NCC(=O)N[C@@H](CO)C(=O)N[C@@H](CCCCN)C(=O)N[C@@H](CO)C(=O)N[C@@H](Cc1ccccc1)C(N)=O)C(C)C)[C@@H](C)O)C(C)C)C(C)C)C(C)C` [hαCGRP8-37A36S, N25K-C20DA-γGlu] (H-VTHRLAGLLSRSGGVVKK([γGlu-C20 diacid])NFVPTNVGSKSF-NH2): in data set [2], the Kb was 6.76 nM.
